Measured values published in US5108916A, “Process for stereoselectively hydrolyzing, transesterifying or esterifying with immobilized isozyme of lipase from Candida rugosa” (priority 1989, dated 1992).
Values joined by “and” are separate entries in the source; they are usually repeats but may differ in a detail not shown here. Equal values may be shown once. Read-outs that look alike come from different tables or passages of the source. Values belong to the molecule of their own block, whether it stands above or below them.

What was measured:
[1] = Solubility of HPPA-Me; assay type: physicochemical
[2] = system: Lipase MY; test: Effect of reducing agents on immobilized Lipase MY in the presence of HPPA; assay type: biochemical, Candida rugosa; settings: for prevention of loss of enzyme activity: repeated batches, Tables 3-5
[3] = system: Lipase MY; test: Product inhibition of Lipase MY; assay type: biochemical, Candida rugosa
Method: Two hydrolysis reactions were run to determine the effect of methanol, produced as a by-product of the hydrolysis of HPPA-Me, on the activity of Lipase MY. (R,S)-HPPA-Me, 1.5 moles, 1 L of 1 M NH4 OAc, pH 6.5, 150 ml toluene, and 2 g Lipase MY were placed in flasks with and without 0.75 moles of methanol. The mixtures were shaken gently and sampled at various times to determine the concentrations of each of the stereoisomers of HPPA which were produced.
To determine the effect of the (R)-HPPA produced during the hydrolysis of (R,S)-HPPA-Me on the activity of Lipase MY, a series of three experiments were performed. Ammonium acetate, 200 ml, 0.04 M, pH 7.0, was combined with 30 ml of toluene, 40 mmoles (R,S)-HPPA-Me, 25 mg Lipase MY, and 0, 30, or 100 mM (R)-HPPA. The reactions were shaken gently for 136 hours and sampled at various times to determine the concentrations of each of the stereoisomers of HPPA which were produced.

[4] = 2 mg/ml in 1M HPPA, 4 days, control enzyme 100%, HPPA treated 70.4%

solubility ([1]; aqueous solution, pH 6.5, read-out: solubility): < 25 mM
Solubility (HPPA-ME) ([1]; in trichlorotrifluoroethane): insoluble
solubility ([1]; organic solvent or mixture, in 1,1,2 trichloroethane, read-out: Solubility (HPPA-ME)): 558 mg/mL
solubility ([1]; organic solvent or mixture, in 1,2-dibromoethane, read-out: Solubility (HPPA-ME)): 566 mg/mL
solubility ([1]; organic solvent or mixture, in carbon tetrachloride, read-out: Solubility (HPPA-ME)): 33 mg/mL
solubility ([1]; organic solvent or mixture, in cumene, read-out: Solubility (HPPA-ME)): 20 mg/mL
solubility ([1]; organic solvent or mixture, in cyclohexane, read-out: Solubility (HPPA-ME)): 66.4 mg/mL
solubility ([1]; organic solvent or mixture, in fluorobenzene, read-out: Solubility (HPPA-ME)): 156 mg/mL
solubility ([1]; organic solvent or mixture, in tetrachloroethylene, read-out: Solubility (HPPA-ME)): 1.4 mg/mL
solubility ([1]; organic solvent or mixture, in toluene, read-out: Solubility (HPPA-ME)): 236 mg/mL
Molecule: COC(=O)C(C)Oc1ccc(O)cc1 (racemic) [HPPA-ME, (R,S)-(+)-methyl-2-(4-hydroxyphenoxy)-propionate]

Molecule: O=S([O-])S(=O)[O-].[Na+].[Na+] [Na2 S2 O4, sodium hydrosulfite]
Relative Activity ([2]; 8 mg/ml, 5760 min): 111%
Relative Activity ([2]; 16 mg/ml, 5760 min): 112%
Conversion (%) of HPPA-Me to HPPA ([2]; Na2S2O4 25 mg, batches as E39): 25% and 21% and 34% and 23% and 29% and 18% and 31%
prevention of loss of enzyme activity [2]: effective at preventing loss of enzyme activity

Molecule: CC(Oc1ccc(O)cc1)C(=O)O (stereo not drawn) [HPPA, 2-(4-hydroxyphenoxy)propionic acid]
solubility ([1]; aqueous solution, pH 6.5): high solubility
reduction in enzyme activity ([3]; various amounts (30, 100 mM) at the beginning): 10-67%

Molecule: tetrabutylammonium cyanoborohydride [Bu4 N CNBH3]
Relative Activity ([2]; 1m hppa phosphate, pH 6.5, 5760 min, 5760 min): 83% and 81% and 88% and 85%

Molecule: N[C@@H](CSSC[C@H](N)C(=O)O)C(=O)O [cystine]
Relative Activity [2, 4]: 83%
Relative Activity ([2]; 4 mg/ml): 76%
Relative Activity ([2]; 8 mg/ml, 5760 min): 81%
Relative Activity ([2]; 16 mg/ml, 5760 min): 83%
conversion of HPPA-Me (quantity not headed in Table 5) ([2]; Cystine 2.5 mg, 15 hrs, batch #: 1, 5, 9, 15, 16, 20, 21, 22): 30 and 19 and 17 and 16 and 20
prevention of loss of enzyme activity [2]: Neither sodium sulfite nor cystine was effective

Molecule: O=S([O-])[O-].[Na+].[Na+] [Na2 SO3, sodium sulfite]
Relative Activity [2, 4]: 95%
Relative Activity ([2]; 4 mg/ml): 101%
Relative Activity ([2]; 8 mg/ml, 5760 min): 110%
Relative Activity ([2]; 16 mg/ml, 5760 min): 111%
Conversion (%) of HPPA-Me to HPPA ([2]; Na2SO3 10 mg, batches as E44): 26% and 20% and 16% and 14% and 13% and 15%
prevention of loss of enzyme activity [2]: Neither sodium sulfite nor cystine was effective

Molecule: CO [methanol]
decrease in activity of the enzyme against HPPA-Me ([3]; 0.5 equivalents at the start of the reaction): 39%
